PMC3038857, “Using Nuclear Receptor Activity to Stratify Hepatocarcinogens” (PLoS ONE, 2011)

Legend:
CYP1A2 = experiment: CLZD_CYP1A2: Change in expression of CYP1A2 (primary human hepatocytes); format: cell-based; details: 24 hr
Outline: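 Chemicals are tested in human hepatocyte primary cultures over 0.004-40 µM (5 concentrations) for 6, 24 or 48 hr, and concentration- and time-dependent transcript changes are read by quantitative nuclease protection assay.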

[1] = target: T1, ESR1 (estrogen receptor 1) (Homo sapiens, UniProt P03372); experiment: ATG_ERa_TRANS: Factorial reporter gene assay (HepG2); format: cell-based; details: HepG2
T1 construct: expressed in transfected cells; host or cells: HepG2
T1 sequence (P03372 whole entry): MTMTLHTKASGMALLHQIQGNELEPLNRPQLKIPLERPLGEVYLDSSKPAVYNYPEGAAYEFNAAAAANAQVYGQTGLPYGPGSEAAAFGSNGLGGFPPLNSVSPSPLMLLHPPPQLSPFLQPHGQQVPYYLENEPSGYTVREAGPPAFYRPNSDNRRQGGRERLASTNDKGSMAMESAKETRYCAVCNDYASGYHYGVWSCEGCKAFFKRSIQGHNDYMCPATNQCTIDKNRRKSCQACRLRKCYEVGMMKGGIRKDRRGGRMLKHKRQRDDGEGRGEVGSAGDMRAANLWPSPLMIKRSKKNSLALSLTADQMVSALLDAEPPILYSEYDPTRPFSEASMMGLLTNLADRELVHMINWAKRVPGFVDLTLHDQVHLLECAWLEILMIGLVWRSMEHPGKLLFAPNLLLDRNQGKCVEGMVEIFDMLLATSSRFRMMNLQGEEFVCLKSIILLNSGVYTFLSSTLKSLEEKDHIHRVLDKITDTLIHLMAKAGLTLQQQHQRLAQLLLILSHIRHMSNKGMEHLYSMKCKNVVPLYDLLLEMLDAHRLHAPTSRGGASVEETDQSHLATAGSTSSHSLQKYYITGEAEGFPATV
Procedure: (§1) A multiple reporter transcription unit (MRTU) library consisting of 48 transcription factor binding sites was transfected into the HepG2 human liver hepatoma cell line. In addition to the cis-acting reporter genes (CIS), a modification of the approach was used to generate a trans-system (TRANS) with a mammalian one-hybrid assay consisting of an additional 25 MRTU library reporting the activity of nuclear receptor super-family members. […] These assays were performed by Attagene Inc. (Morrisville NC) under contract to EPA.
(§2) In addition to the cis-acting reporter genes (CIS), a modification of the approach was used to generate a trans-system (TRANS) with a mammalian one-hybrid assay consisting of an additional 25 MRTU library reporting the activity of nuclear receptor super-family members. […] Chemicals were then tested in the CIS and TRANS assays at seven concentrations starting at the MTC and followed by three-fold serial dilutions. These assays were performed by Attagene Inc. (Morrisville NC) under contract to EPA. Detailed description of the methods, data and analysis methods for this dataset will be presented in a separate publication.

ERa (ESR1) [2] = target: T2, ERa (ESR1) (Homo sapiens, UniProt P03372); experiment: NCGC_ERalpha_Agonist: GAL4 BLAM Reporter gene assay: ERa; format: cell-based; details: agonist mode
T2 construct: expressed in transfected cells; host or cells: HEK293
T2 sequence (P03372 whole entry, the tested form may be a part): as the sequence (P03372 whole entry) above
Procedure: These assays measure binding constants and enzyme inhibition values for nuclear receptors. The targets include [drawing 67] , [drawing 68] , [drawing 69] , [drawing 70] , [drawing 71] , [drawing 72] , [drawing 73] , [drawing 74] , [drawing 75] and [drawing 76] . Each of the nuclear receptor targets was measured in agonist mode. Assays were run at the NIH Chemical Genomics Center (Rockville, MD).
Cell-based HTS Assays: These assays measuring binding constants and enzyme inhibition values for nuclear receptors. The targets include AR, ER, FXR, LXR, PPARα, PPARδ, PPARγ, RXRα, RXRβ and PXR. Each of the nuclear receptor targets was measured in both agonist and antagonist mode, but the antagonist data is still undergoing analysis due to possible interference between cytotoxicity and assay activity, so antagonist mode data were not used in the present analysis. Assays were run at the NIH Chemical Genomics Center (Rockville, MD) as part of the Tox21 collaboration. […] The R^2 was required to be ≥0.5. Values where only the highest concentration exceeded 50% activity were excluded to eliminate weak or false positives. Detailed description of the methods, data and analysis methods for this dataset will be presented in a separate publication.

CYP2B6 = experiment: CLZD_CYP2B6: Change in expression of CYP2B6 (primary human hepatocytes); format: cell-based; details: 24 hr
Outline: (§3)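 Five-point concentration series (0.004-40 µM) applied to primary human hepatocytes; 6/24/48 hr timepoints; transcript quantified by multiplexed nuclease protection.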

PXR (NR1I2) [3] = target: T3, PXR (NR1I2) (Homo sapiens, UniProt O75469); experiment: ATG_PXRE_CIS: Factorial reporter gene assay (HepG2); format: cell-based; parameters: endogenous in cells; host or cells: HepG2; details: HepG2
T3 sequence (O75469 1-434): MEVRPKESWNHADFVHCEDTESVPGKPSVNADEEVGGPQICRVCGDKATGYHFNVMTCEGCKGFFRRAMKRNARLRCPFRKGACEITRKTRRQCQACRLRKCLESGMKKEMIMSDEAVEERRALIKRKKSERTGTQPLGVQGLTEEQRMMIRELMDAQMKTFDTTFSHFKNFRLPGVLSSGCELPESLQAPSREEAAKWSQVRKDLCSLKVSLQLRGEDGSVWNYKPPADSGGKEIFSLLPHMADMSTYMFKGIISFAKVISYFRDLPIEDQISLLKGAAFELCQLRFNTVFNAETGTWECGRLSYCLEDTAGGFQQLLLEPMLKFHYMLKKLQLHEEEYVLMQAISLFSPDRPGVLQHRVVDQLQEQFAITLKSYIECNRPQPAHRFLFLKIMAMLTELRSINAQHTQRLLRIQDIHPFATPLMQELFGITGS
Outline: (§4)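 Seven concentrations per chemical, three-fold dilutions down from the MTC, were tested in HepG2 hepatoma cells. Those cells carried a multiple reporter transcription unit library, read either as cis transcription-factor-site reporters or as a trans mammalian one-hybrid panel for nuclear receptors.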

[4] = target: T1, ESR1 (estrogen receptor 1); experiment: ATG_ERE_CIS: Factorial reporter gene assay (HepG2); format: cell-based; details: HepG2
Procedure: as §1, §2

ERa (ESR1) [5] = target: T2, ERa (ESR1); experiment: NCGC_ERalpha_Antagonist: GAL4 BLAM Reporter gene assay: ERa; format: cell-based; details: antagonist mode
CYP3A4 = experiment: CLZD_CYP3A4: Change in expression of CYP3A4 (primary human hepatocytes); format: cell-based; details: 24 hr
Outline: as §3

[6] = target: T4, PPARG (peroxisome proliferator-activated receptor gamma) (Homo sapiens, UniProt P37231); experiment: ATG_PPARg_TRANS: Factorial reporter gene assay (HepG2); format: cell-based; details: HepG2
T4 construct: expressed in transfected cells; host or cells: HepG2
T4 sequence (P37231 1-505): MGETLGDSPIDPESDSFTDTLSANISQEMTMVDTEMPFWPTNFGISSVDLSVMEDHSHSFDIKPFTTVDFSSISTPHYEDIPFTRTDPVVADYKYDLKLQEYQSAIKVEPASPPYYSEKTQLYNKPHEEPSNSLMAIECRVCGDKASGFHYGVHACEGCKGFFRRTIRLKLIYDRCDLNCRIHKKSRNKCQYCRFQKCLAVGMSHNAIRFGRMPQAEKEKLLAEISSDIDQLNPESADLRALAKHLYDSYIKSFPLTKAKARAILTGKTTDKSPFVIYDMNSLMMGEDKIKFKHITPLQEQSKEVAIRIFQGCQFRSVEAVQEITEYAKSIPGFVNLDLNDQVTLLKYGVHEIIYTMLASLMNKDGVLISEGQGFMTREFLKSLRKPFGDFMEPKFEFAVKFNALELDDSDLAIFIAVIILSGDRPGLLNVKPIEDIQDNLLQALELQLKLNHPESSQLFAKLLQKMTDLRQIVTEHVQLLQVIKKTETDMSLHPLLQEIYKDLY
Outline: as §4

PPARg (PPARG) = target: T5, PPARg (PPARG) (Homo sapiens, UniProt P37231); experiment: NVS_NR_hPPARg: Human PPARg Fluorescent Ligand (cell-free HTS); format: binding
T5 sequence (P37231 1-505): T4 sequence (P37231 1-505)
Excerpt: (§5) These are a collection of biochemical assays measuring binding constants and enzyme inhibition values. Chemicals were initially screened at a single concentration in duplicate wells at a concentration of 10 [drawing 63] M for cytochrome P-450 assays and 25 [drawing 64] M for all others. […] These assays were run by Caliper Life Sciences (Hanover, MD) under contract to EPA. Short assay descriptions are available at: http://www.caliperls.com/products/contract-research/in-vitro/.
(§6) Cell-free HTS Assays: A collection of biochemical assays measuring binding constants and enzyme inhibition values. […] These assays were run by Caliper Life Sciences (Hanover, MD) under contract to EPA. Short assay descriptions are available at http://www.caliperls.com/products/contract-research/in-vitro/. Values for all endpoints were imported into GeneData Screener (Basel, Switzerland) and normalised to solvent controls from the same plate as the tested compounds and expressed as percent of neutral control. Concentration-response curves were fit in GeneData Screener (Basel, Switzerland) Condeseo module using the Hill equation and AC50 values were determined. […] Detailed description of the methods, data and analysis methods for this dataset are described in a separate publication.

AR (androgen receptor) = experiment: NVS_NR_hAR: Human AR 3H-Methyltrienolone (cell-free HTS); format: binding
Excerpt: as §5, §6

PXR (NR1I2) [7] = target: T3, PXR (NR1I2); experiment: NVS_NR_hPXR: Human PXR Fluormone PXR (SXR) green (cell-free HTS); format: binding
Outline: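 Responses were normalized to same-plate solvent controls as percent of neutral control. AC50 values came from Hill-equation fits of concentration-response curves.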

SMILES | CLZD_CYP1A2_24 (CYP1A2) | ATG_ERa_TRANS [1] | NCGC_ERalpha_Agonist (ERa (ESR1) [2]) | CLZD_CYP2B6_24 (CYP2B6) | ATG_PXRE_CIS (PXR (NR1I2) [3]) | ATG_ERE_CIS [4] | NCGC_ERalpha_Antagonist (ERa (ESR1) [5]) | CLZD_CYP3A4_24 (CYP3A4) | ATG_PPARg_TRANS [6] | NVS_NR_hPPARg (PPARg (PPARG)) | NVS_NR_hAR (AR (androgen receptor)) | NVS_NR_hPXR (PXR (NR1I2) [7])
COc1ccc(C(c2ccc(OC)cc2)C(Cl)(Cl)Cl)cc1 [row 201] | 5.201 | 5.569 | 5.406 | 5.24 | 5.036 | 5.398 | 4.409 | 4.692 |  |  |  | 
O=S(=O)(O)C(F)(F)C(F)(F)C(F)(F)C(F)(F)C(F)(F)C(F)(F)C(F)(F)C(F)(F)F [r240] |  |  |  | 4.97 | 4.745 |  |  | 4.541 | 4.585 | 4.932 | 4.625 | 4.496
